According to patent US3955959A, “Herbicide for use in transplanted rice” (priority 1974, dated 1976):
Values after ≈ are worked out from the molar mass of the structure shown. Values joined by “and” are separate entries in the source; they are usually repeats but may differ in a detail not shown here. Identical values can stand only once.

What was measured:
transplanted rice [1] = assay: Example 1 field test, rice yield; type: in vivo, rice (Watanabe variety); details: in vivo
Excerpt: In the field test 48 day-old seedlings (Watanabe variety) were transplanted to plots 2.5 × 6 m. seeded with the weed seeds indicated in Table 1. At 5 and 10 DAT periods, the herbicides were applied to the plants (now at the 1.2 and 2.0 leaf stage, respectively, of grass weed) at the indicated rate in kilograms per hectare (kg/ha). The weed control and rice injury results for 3 replications are reported in percentages as of the indicated times of observation. The percentages given in the "Perennials" column are based on the weight of the weeds at 63 DAT, i.e., 42 gms/3.6 m^2 for the weedy check.

transplanted rice [2] = assay: Example 2 field test, crop injury; details: obs. 63 DAT
Method: (§1) In the tests described in the tables below, the herbicides were formulated and used in granular form in conventional manner. […] The commercial herbicide used was a granular product having 5% active ingredient.
(§2) In the field tests of the herbicide of this invention with transplanted rice, the rice seedlings were grown in conventional manner, by seeding the rice in a typical seedbed of sandy loam to clay soil of the country wherein the test was conducted. For laboratory and greenhouse work the seedlings were obtained by seeding rice in a mixture of soil, e.g., Ray silt loam, and peat in wood flats. For purposes of testing the herbicides on younger rice seedlings (infant or Dapog) the rice was usually allowed to grow for 6-15 days before lifting for transplanting. Older (ordinary) rice plants were usually grown for a period of about 2-3 weeks, or as much as about 7 weeks before lifting. Since the period of growth is dependent upon climatic conditions, a better measure of when to transplant the rice seedling is the leaf stage of growth; for infant or Dapog rice the seedling is lifted at the 1.5-2 leaf stage of growth, and for ordinary seedlings at the 2.5-5 leaf stage. The seedlings were then transplanted to the test plots for evaluation of the herbicide for injury against weed species present with the transplanted rice. The herbicides were then applied to the growth medium of the weeds and transplant rice, either preemergent or postemergent with respect to the weeds and postemergent with respect to the transplanted rice. Application times are designated in the tables as "DAT", meaning "days after transplant". Application rates given in the tables refer to the amount of active ingredient used.
Rice seedlings (ordinary) of Tainan No. 5 variety (japonica) were transplanted at 19 days of growth. Granular formulations of Herbicides A and B were applied at the 1 leaf stage of grass weed (4 DAT) and 2.5 leaf stage of grass weed (10 DAT). Observations were made at 63 DAT and results reported in Table 2 as an average of 3 replications.

[3] = system: Grass: Ec and Ecol (Echinochloa crusgalli, Echinochloa colonum); assay: Example 3 field test on Dapog rice, weed control, Munoz, Philippines; type: in vivo; details: obs. 42 DAT
Excerpt: (§3) Treatments were replicated four times.

[4] = system: Sedges: Cd, Ci, Fl (Cyperus difformis, Cyperus iria, Fimbristylis littoralis); assay: as above; type: in vivo; details: obs. 42 DAT
Excerpt: as §3

[5] = system: Ec (Echinochloa crusgalli); assay: Example 5 field test, weed control, JAAPR, Japan; type: in vivo
Ann. Cyp (Cyperus spp) = assay: Example 5 field test, weed control, JAAPR, Japan
Method: as §1, §2
The rice seedlings were grown to the 1.7 leaf stage for infant seedlings and to the 5.5 leaf stage for ordinary seedlings. Two days after puddling the soil in which the seedlings were to be transplanted, both infant and ordinary seedlings were transplanted into plots 8.5 m^2.
The weed symbol "Obw" represents "other broadleaf weeds" of unspecified identity. Results presented in Table 5 represent the average of 2 replications.

Ce (Cyperus esculentus) = assay: Example 7 greenhouse preemergence activity; type: in vivo
Method: (§4) In a further comparative study of the preemergence activity of Herbicides A and B, a variety of weeds and upland direct-seeded rice were tested under greenhouse conditions. The present invention is not concerned with the use of Herbicide A in direct-seeded rice. The primary purpose of the experimental work in this example is to compare relative herbicidal activity of Herbicides A and B against the weeds shown in Table 7; most of these weeds were not available for tests with transplanted rice. Although the relative selectivity of these herbicides in upland rice is also evident, that aspect of the tests is more or less incidental to the purpose of this example.
In this example, rice seeds and seeds of the weeds shown in Table 7 were sown in Ray silt loam soil at a depth of 0.5 inch (1.27 cm) in containers for the soil in a greenhouse. Herbicides A and B were applied to the surface of the soil at a spray volume equivalent to 20 gals/acre (187.1 liters/hectare), followed by 0.5 in (1.27 cm) of overhead irrigation. Temperature and relative humidity in the greenhouse were on the order of 85°F (29°C) and 75%, respectively. Observations were made at 21-28 days after seeding.
In Table 7 are shown the average rates of herbicide required to cause a growth reduction of 85% of the weeds ("GR85 "), and the average rate of herbicide required to cause a growth reduction of 15% ("GR15 ") of the rice plants (Oryza sativa, "Os", variety Bluebelle).

[6] = Example 10 fish toxicity, Japanese protocol; type: in vivo, carp; details: carp, in vivo, read-out: Medium Lethal Concentration
Method: In view of the importance of fish toxicological considerations, tests were conducted, using carp according to the Japanese protocol, to compare toxicity data for Herbicides A and B; results of those tests are shown in Table 10.

[7] = system: weeds in upland direct-seeded rice; assay: Example 7 overall; type: in vivo; details: direct-seeded rice cultures
Method: as §4
In this example, rice seeds and seeds of the weeds shown in Table 7 were sown in Ray silt loam soil at a depth of 0.5 inch (1.27 cm) in containers for the soil in a greenhouse. Herbicides A and B were applied to the surface of the soil at a spray volume equivalent to 20 gals/acre (187.1 liters/hectare), followed by 0.5 in (1.27 cm) of overhead irrigation. Temperature and relative humidity in the greenhouse were on the order of 85°F (29°C) and 75%, respectively. Observations were made at 21-28 days after seeding. […]

[8] = 1.0 kg/ha, 15 DAT, infant seedlings
[9] = 1.0 kg/ha, 15 DAT, ordinary seedlings
[10] = .25 kg/ha, 2 DAT, infant seedlings
[11] = .25 kg/ha, 2 DAT, ordinary seedlings
[12] = .5 kg/ha, 7 DAT, infant seedlings
[13] = .5 kg/ha, 7 DAT, ordinary seedlings

With `CCCCOCN(C(=O)CCl)c1c(C)cccc1C(C)(C)C` [Herbicide A, n-(butoxymethyl)-6'-tert-butyl-2-chloro-o-acetotoluidide] the “Yield (% of Hand-weeded Check)” value (transplanted rice [1]) was 102% and 101% and 100% and 98% and 99%, the “% Crop Injury, stand” value (transplanted rice [2]; 4 DAT, 1.0 kg/ha) was 0% and the “% Crop Injury, vigor” value (transplanted rice [2]; 4 DAT, 1.0 kg/ha) was 0%. The “% Crop Injury, stand” value (transplanted rice [2]; 4 DAT, 2.0 kg/ha) was 5%, the “% Crop Injury, vigor” value (transplanted rice [2]; 4 DAT, 2.0 kg/ha) was 27% and the “% Crop Injury, stand” value (transplanted rice [2]; 4 DAT, .25 kg/ha) was 0%. The “% Crop Injury, vigor” value (transplanted rice [2]; 4 DAT, .25 kg/ha) was 0%, the “% Crop Injury, stand” value (transplanted rice [2]; 4 DAT, .5 kg/ha) was 0% and the “% Crop Injury, vigor” value (transplanted rice [2]; 4 DAT, .5 kg/ha) was 0%. For the same compound, the “% Crop Injury, stand” value (transplanted rice [2]; 10 DAT, 1.0 kg/ha) was 3%, the “% Crop Injury, vigor” value (transplanted rice [2]; 10 DAT, 1.0 kg/ha) was 7% and the “% Crop Injury, stand” value (transplanted rice [2]; 10 DAT, 2.0 kg/ha) was 15%. The “% Crop Injury, vigor” value (transplanted rice [2]; 10 DAT, 2.0 kg/ha) was 25%, the “% Crop Injury, stand” value (transplanted rice [2]; 10 DAT, .25 kg/ha) was 0% and the “% Crop Injury, vigor” value (transplanted rice [2]; 10 DAT, .25 kg/ha) was 0%. The “% Crop Injury, stand” value (transplanted rice [2]; 10 DAT, .5 kg/ha) was 0%, the “% Crop Injury, vigor” value (transplanted rice [2]; 10 DAT, .5 kg/ha) was 2% and the “% Weed control, Grass (Ec and Ecol)” value ([3]; 5 DAT, 1.0 kg/ha) was 100%. The “% Weed control, Grass (Ec and Ecol)” value ([3]; 5 DAT, 2.0 kg/ha) was 100%, the “% Weed control, Grass (Ec and Ecol)” value ([3]; 5 DAT, .25 kg/ha) was 100% and the “% Weed control, Grass (Ec and Ecol)” value ([3]; 5 DAT, .5 kg/ha) was 100%. The “% Weed control, Grass (Ec and Ecol)” value ([3]; 14 DAT, 1.0 kg/ha) was 50%, the “% Weed control, Grass (Ec and Ecol)” value ([3]; 14 DAT, 2.0 kg/ha) was 90% and the “% Weed control, Grass (Ec and Ecol)” value ([3]; 14 DAT, .25 kg/ha) was 0%. The “% Weed control, Grass (Ec and Ecol)” value ([3]; 14 DAT, .5 kg/ha) was 50%, the “% Weed control, Sedges (Cd, Ci, Fl)” value ([4]; 5 DAT, 1.0 kg/ha) was 100% and the “% Weed control, Sedges (Cd, Ci, Fl)” value ([4]; 5 DAT, 2.0 kg/ha) was 100%. For the same compound, the “% Weed control, Sedges (Cd, Ci, Fl)” value ([4]; 5 DAT, .25 kg/ha) was 100%, the “% Weed control, Sedges (Cd, Ci, Fl)” value ([4]; 5 DAT, .5 kg/ha) was 100% and the “% Weed control, Sedges (Cd, Ci, Fl)” value ([4]; 14 DAT, 1.0 kg/ha) was 70%. For the same compound, the “% Weed control, Sedges (Cd, Ci, Fl)” value ([4]; 14 DAT, 2.0 kg/ha) was 70%, the “% Weed control, Sedges (Cd, Ci, Fl)” value ([4]; 14 DAT, .25 kg/ha) was 0% and the “% Weed control, Sedges (Cd, Ci, Fl)” value ([4]; 14 DAT, .5 kg/ha) was 70%. The “% Weed Control (Ec)” value [5, 8] was 100%, the “% Weed Control (Ec)” value [5, 9] was 100% and the “% Weed Control (Ec)” value [5, 10] was 100%. For the same compound, the “% Weed Control (Ec)” value [5, 11] was 100%, the “% Weed Control (Ec)” value [5, 12] was 100% and the “% Weed Control (Ec)” value [5, 13] was 100%. For the same compound, the “control of Ec in words” value ([5]; both plots, all rates) was “controlled”, the “control of Ann. Cyp in words” value (Ann. Cyp (Cyperus spp); 0.25 kg/ha both plots, 1.0 kg/ha ordinary) was “controlled completely” and the “% Weed Control (Ann. Cyp)” value (Ann. Cyp (Cyperus spp); [8]) was 100%. For the same compound, the “% Weed Control (Ann. Cyp)” value (Ann. Cyp (Cyperus spp); [9]) was 100%, the “control of Ann. Cyp in words” value (Ann. Cyp (Cyperus spp); 1.0 kg/ha, infant seedling plots) was “controlled” and the “% Weed Control (Ann. Cyp)” value (Ann. Cyp (Cyperus spp); [10]) was 100%. For the same compound, the “% Weed Control (Ann. Cyp)” value (Ann. Cyp (Cyperus spp); [11]) was 100%, the “% Weed Control (Ann. Cyp)” value (Ann. Cyp (Cyperus spp); [12]) was 75% and the “% Weed Control (Ann. Cyp)” value (Ann. Cyp (Cyperus spp); [13]) was 80%. The “resistance of Ce” value (Ce (Cyperus esculentus)) was “resistant”, the LC50 at 48 h ([6]; 48 hours) was 1.8 µg/mL (≈ 5.52 µM) and the LC50 at 96 h ([6]; 96 hours) was 1.4 µg/mL (≈ 4.3 µM). The “activity vs Herbicide B in direct-seeded rice” value [7] was “significantly more active”.
